From ChEMBL document CHEMBL4145553, “Design, synthesis, and biological evaluation of novel amide and hydrazide based thioether analogs targeting Histone deacteylase (HDAC) enzymes” (Eur J Med Chem, 2018)

Legend:
Malme-3M = test: Growth of human MALME-3M cells at 10 uM incubated for 48 hrs by sulforhodamine B assay relative to control
786-0 = test: Growth inhibition of human 786-0 cells at 10 uM incubated for 48 hrs by sulforhodamine B assay relative to control; assay type: functional; conditions: 786-0, 48 h, values are per cent of control
SK-MEL-2 = test: Growth of human SK-MEL-2 cells at 10 uM incubated for 48 hrs by sulforhodamine B assay relative to control; conditions: SK-MEL-2, 48 h
NCI/ADR-RES = test: Growth inhibition of human NCI/ADR-RES cells at 10 uM incubated for 48 hrs by sulforhodamine B assay relative to control; assay type: functional; conditions: values are per cent of control
COLO 205 = test: Growth of human COLO205 cells at 10 uM incubated for 48 hrs by sulforhodamine B assay relative to control; conditions: COLO 205, 48 h
CCRF-CEM [1] = test: Growth of human CCRF-CEM cells at 10 uM incubated for 48 hrs by sulforhodamine B assay relative to control
UACC-62 = test: Growth of human UACC62 cells at 10 uM incubated for 48 hrs by sulforhodamine B assay relative to control; conditions: UACC-62, 48 h
SF-268 = test: Growth inhibition of human SF268 cells assessed as cell growth at 10^-6 M incubated for 48 hrs by sulforhodamine B assay relative to control; assay type: functional; conditions: SF-268, 48 h, read-out: Activity
DU-145 = test: Growth inhibition of human DU145 cells at 10 uM incubated for 48 hrs by sulforhodamine B assay relative to control; assay type: functional; conditions: DU-145, 48 h, values are per cent of control
LOX IMVI = test: Growth of human LOXIMVI cells at 10 uM incubated for 48 hrs by sulforhodamine B assay relative to control
M14 = test: Growth of human M14 cells at 10 uM incubated for 48 hrs by sulforhodamine B assay relative to control; conditions: M14, 48 h
SNB-75 = test: Growth of human SNB75 cells at 10 uM incubated for 48 hrs by sulforhodamine B assay relative to control; conditions: SNB-75, 48 h
OVCAR-8 = test: Growth of human OVCAR8 cells at 10 uM incubated for 48 hrs by sulforhodamine B assay relative to control; conditions: OVCAR-8, 48 h
SW-620 = test: Growth of human SW620 cells at 10 uM incubated for 48 hrs by sulforhodamine B assay relative to control; conditions: SW-620, 48 h
SK-OV-3 = test: Growth inhibition of human SKOV3 cells at 10 uM incubated for 48 hrs by sulforhodamine B assay relative to control; assay type: functional; conditions: SK-OV-3, 48 h, values are per cent of control
OVCAR-3 [2] = test: Growth of human OVCAR3 cells at 10 uM incubated for 48 hrs by sulforhodamine B assay relative to control; conditions: OVCAR-3, 48 h
SF-295 [3] = test: Growth inhibition of human SF295 cells assessed as cell growth at 10^-6 M incubated for 48 hrs by sulforhodamine B assay relative to control; assay type: functional; conditions: SF-295, 48 h, read-out: Activity
SK-MEL-5 = test: Growth of human SK-MEL-5 cells at 10 uM incubated for 48 hrs by sulforhodamine B assay relative to control; conditions: SK-MEL-5, 48 h
HCT-116 = test: Growth inhibition of human HCT116 cells assessed as cell growth at 10^-7 M incubated for 48 hrs by sulforhodamine B assay relative to control; assay type: functional; conditions: HCT-116, 48 h, read-out: Activity
HCC 2998 = test: Growth of human HCC2998 cells at 10 uM incubated for 48 hrs by sulforhodamine B assay relative to control; conditions: HCC 2998, 48 h
UACC-257 = test: Growth of human UACC257 cells at 10 uM incubated for 48 hrs by sulforhodamine B assay relative to control; conditions: UACC-257, 48 h
CCRF-CEM [4] = test: Growth inhibition of human CCRF-CEM cells incubated for 48 hrs by sulforhodamine B assay; assay type: functional
OVCAR-3 [5] = test: Growth inhibition of human OVCAR3 cells assessed as cell growth at 10^-5 M incubated for 48 hrs by sulforhodamine B assay relative to control; assay type: functional; conditions: OVCAR-3, 48 h, read-out: Activity
RXF 393 = test: Growth inhibition of human RXF393 cells at 10 uM incubated for 48 hrs by sulforhodamine B assay relative to control; assay type: functional; conditions: RXF 393, 48 h, values are per cent of control
Hs-578T = test: Growth inhibition of human Hs 578T cells at 10 uM incubated for 48 hrs by sulforhodamine B assay relative to control; assay type: functional; conditions: values are per cent of control
U-251 = test: Growth of human U251 cells at 10 uM incubated for 48 hrs by sulforhodamine B assay relative to control; conditions: U-251, 48 h
MDA-MB-468 = test: Growth inhibition of human MDA-MB-468 cells at 10 uM incubated for 48 hrs by sulforhodamine B assay relative to control; assay type: functional; conditions: MDA-MB-468, 48 h, values are per cent of control
MCF7 = test: Growth inhibition of human MCF7 cells at 10 uM incubated for 48 hrs by sulforhodamine B assay relative to control; assay type: functional; conditions: MCF7, 48 h, values are per cent of control
A549 = test: Growth of human A549/ATCC cells at 10 uM incubated for 48 hrs by sulforhodamine B assay relative to control; conditions: A549, 48 h
T47D = test: Growth inhibition of human T47D cells at 10 uM incubated for 48 hrs by sulforhodamine B assay relative to control; assay type: functional; conditions: values are per cent of control
SF-295 [6] = test: Growth of human SF295 cells at 10 uM incubated for 48 hrs by sulforhodamine B assay relative to control; conditions: SF-295, 48 h
NCI-H226 = test: Growth inhibition of human NCI-H226 cells at 10 uM incubated for 48 hrs by sulforhodamine B assay relative to control; assay type: functional; conditions: NCI-H226, 48 h, values are per cent of control

Row | SMILES | growth, % of control at 10 µM (Malme-3M) | growth, % of control at 10 µM (786-0) | growth, % of control at 10 µM (SK-MEL-2) | growth, % of control at 10 µM (NCI/ADR-RES) | growth, % of control at 10 µM (COLO 205) | growth, % of control at 10 µM (CCRF-CEM [1]) | growth, % of control at 10 µM (UACC-62) | growth, % of control at 10 µM (DU-145) | growth, % of control at 10 µM (LOX IMVI) | growth, % of control at 10 µM (M14) | growth, % of control at 10 µM (SNB-75) | growth, % of control at 10 µM (OVCAR-8) | growth, % of control at 10 µM (SW-620) | growth, % of control at 10 µM (SK-OV-3) | growth, % of control at 10 µM (OVCAR-3 [2]) | growth, % of control at 10 µM (SK-MEL-5) | growth, % of control at 10 µM (HCC 2998) | growth, % of control at 10 µM (UACC-257) | growth, % of control at 10 µM (RXF 393) | growth, % of control at 10 µM (Hs-578T) | other results
1 | CCS/C(Nc1ccccc1)=C(\C#N)C(=O)Nc1ccc(OC)cc1 | 55.5% | 39.5% | -0.34% | -0.67% | 17.5% | 8.29% | 27.2% | 33.8% | 36.6% | 15.2% | 18.2% | 31.2% | 17.9% | 22.4% | -12.1% | 17.8% | 55.2% | 58.4% | 39.5% | 27.4% | growth at 1 µM (SF-268): 90%; growth at 1 µM (SF-295 [3]): 82%; growth at 0.1 µM (HCT-116): 89%; GI50 (CCRF-CEM [4]; read-out: GI50): 1.83 µM; CC50 (CCRF-CEM [4]; read-out: LC50 (the source's name)): > 100 µM; TGI (CCRF-CEM [4]; read-out: TGI): > 100 µM; GI50 (CCRF-CEM [4]; read-out: pGI50 (converted)): 1.82 µM; CC50 (CCRF-CEM [4]; read-out: pLC50 (the source's name) (converted)): > 100 µM; TGI (CCRF-CEM [4]; read-out: pTGI): > 100 µM; growth at 10 µM (OVCAR-3 [5]): -6%; growth, % of control at 10 µM (U-251): 16.6%; growth, % of control at 10 µM (MDA-MB-468): -2.63%; growth, % of control at 10 µM (MCF7): 19%; growth, % of control at 10 µM (A549): 34.6%; growth, % of control at 10 µM (T47D): 25.4%; growth, % of control at 10 µM (SF-295 [6]): 32.6%; growth, % of control at 10 µM (NCI-H226): 57.9%
2 | CC(C)(C)S/C(Nc1ccccc1)=C(\C#N)C(=O)N/N=C\c1ccc(Cl)cc1Cl | 94.2% | 97.8% | 91.6% | 96% | 112% | 88.3% | 89.9% | 113% | 101% | 98.5% | 102% | 97.3% | 105% | 101% | 98.6% | 98.7% | 98.6% | 92.5% | 103% | 90.1% | growth, % of control at 10 µM (U-251): 98.6%; growth, % of control at 10 µM (MDA-MB-468): 98.9%; growth, % of control at 10 µM (MCF7): 92.7%; growth, % of control at 10 µM (A549): 98.1%; growth, % of control at 10 µM (T47D): 78.4%; growth, % of control at 10 µM (SF-295 [6]): 97.9%; growth, % of control at 10 µM (NCI-H226): 92.6%
3 | CC(C)(C)S/C(Nc1ccccc1)=C(\C#N)C(=O)Nc1ccccc1 | 97.3% | 94.3% | 94% | 100% | 102% | 86.4% | 94.9% | 107% | 98.8% | 100% | 96.5% | 99.8% | 103% | 105% | 108% | 102% | 106% | 92.9% | 101% | 99.6% | growth, % of control at 10 µM (U-251): 92%; growth, % of control at 10 µM (MDA-MB-468): 92.8%; growth, % of control at 10 µM (MCF7): 100%; growth, % of control at 10 µM (A549): 88.4%; growth, % of control at 10 µM (T47D): 85.2%; growth, % of control at 10 µM (SF-295 [6]): 94.4%; growth, % of control at 10 µM (NCI-H226): 88.9%
4 | CCS/C(Nc1ccccc1)=C(\C#N)C(=O)N/N=C\c1ccco1 | 95.9% | 100% | 94.3% | 101% | 103% | 91.2% | 97.7% | 106% | 109% | 99.2% | 89.1% | 92.1% | 103% | 99.3% | 104% | 101% | 107% | 84.4% | 104% | 101% | growth, % of control at 10 µM (U-251): 94%; growth, % of control at 10 µM (MDA-MB-468): 91.4%; growth, % of control at 10 µM (MCF7): 66.8%; growth, % of control at 10 µM (A549): 86.7%; growth, % of control at 10 µM (T47D): 78%; growth, % of control at 10 µM (SF-295 [6]): 101%; growth, % of control at 10 µM (NCI-H226): 95.2%
